Assay results reported in patent US10131673B2, “Piperidine substituted tricyclic pyrazolo[1,5-a]pyrimidine derivatives with inhibitory activity on the replication of the respiratory syncytial virus (RSV)” (priority 2014, dated 2018).

What was measured:
rgRSV224 virus = experiment: microbe, parasite or virus in culture; type: cell-based, respiratory syncytial virus (RSV); settings: for EC50: human respiratory syncytial virus, HeLa, 72 h, read-out: RSV HELA pEC50 (converted); for RSV HELA pEC50: rgRSV224 virus MOI=1, HeLa cells, GFP expression three days post-virus exposure

Experimental for HeLa cells: Black 384-well clear-bottom microtiter plates (Corning, Amsterdam, The Netherlands) were filled via acoustic drop ejection using the echo liquid handler (Labcyte, Sunnyvale, Calif.). 200 nL of compound stock solutions (100% DMSO) were transferred to the assay plates. 9 serial 4-fold dilutions of compound were made, creating per quadrant the same compound concentration. The assay was initiated by adding 10 μL of culture medium to each well (RPMI medium without phenol red, 10% FBS-heat inactivated, 0.04% gentamycin (50 mg/mL). All addition steps are done by using a multidrop dispenser (Thermo Scientific, Erembodegem, Belgium). Next, rgRSV224 virus (MOI=1) diluted in culture medium was added to the plates. rgRSV224 virus is an engineered virus that includes an additional GFP gene (Hallak L K, Spillmann D, Collins P L, Peeples M E. Glycosaminoglycan sulfation requirements for respiratory syncytial virus infection; Journal of virology (2000), 74(22), 10508-13) and was in-licensed from the NIH (Bethesda, Md., USA). Finally, 20 μL of a HeLa cell suspension (3,000 cells/well) were plated. Medium, virus- and mock-infected controls were included in each test. The wells contain 0.05% DMSO per volume. Cells were incubated at 37° C. in a 5% CO2 atmosphere. Three days post-virus exposure, viral replication was quantified by measuring GFP expression in the cells by an in house developed MSM laser microscope (Tibotec, Beerse, Belgium). The EC50 was defined as the 50% inhibitory concentration for GFP expression. In parallel, compounds were incubated for three days in a set of white 384-well microtiter plates (Corning) and the cytotoxicity of compounds in HeLa cells was determined by measuring the ATP content of the cells using the ATPlite kit (Perkin Elmer, Zaventem, Belgium) according to the manufacturer's instructions. The CC50 was defined as the 50% concentration for cytotoxicity.

Row | Structure (SMILES) | TOX HELA pCC50 (HeLa cells) | EC50 (rgRSV224 virus) [nM] | RSV HELA pEC50 (rgRSV224 virus)
1 | Cc1ccc(NS(C)(=O)=O)c(C(=O)N2CCCCC2c2cc3nc4c(c(N5CCOCC5)n3n2)COCC4)c1 (stereo not drawn) [Compound P34, N-(4-methyl-2-(2-(9-morpholino-6,8-dihydro-5H-pyrano[4,3-d]pyrazolo-[1,5-a]pyrimidin-2-yl)piperidine-1-carbonyl)phenyl)methanesulfonamide] | 4.6 | 20.9 | –
2 | Cc1ccc(NS(C)(=O)=O)c(C(=O)N2CCCCC2c2cc3nc4c(c(N5CCOCC5)n3n2)CCCCC4)c1 (stereo not drawn) [Compound P23, N-(4-methyl-2-(2-(10-morpholino-6,7,8,9-tetrahydro-5H-cyclohepta[d]-pyrazolo[1,5-a]pyrimidin-2-yl)piperidine-1-carbonyl)phenyl)-methanesulfonamide] | 4.6 | 66.1 | –
3 | Cc1ccc(NS(C)(=O)=O)c(C(=O)N2CCCCC2c2cc3nc4c(c(N5CCOCC5)n3n2)CCCC4)c1 (racemic) [Compound P1, N-(4-methyl-2-(2-(9-morpholino-5,6,7,8-tetrahydropyrazolo[5,1-b]quinazolin-2-yl)piperidine-1-carbonyl)phenyl)methanesulfonamide] | 4.4 | 1.78 | –
4 | CCc1ccc2ncnc(N3CCCCC3c3cc4nc5c(c(N6CCOCC6)n4n3)CCCC5)c2c1C (stereo not drawn) [Compound P13, 4-(2-(1-(6-ethyl-5-methylquinazolin-4-yl)piperidin-2-yl)-5,6,7,8-tetrahydropyrazolo[5,1-b]quinazolin-9-yl)morpholine] | 4.7 | 724 | –
5 | Fc1cccc2ncnc(N3CCCCC3c3cc4nc5c(c(N6CCOCC6)n4n3)CCCC5)c12 (stereo not drawn) [Compound P10, 4-(2-(1-(5-fluoroquinazolin-4-yl)piperidin-2-yl)-5,6,7,8-tetrahydropyrazolo-[5,1-b]quinazolin-9-yl)morpholine] | 4.6 | 891 | –
6 | Cc1nc2cc([C@@H]3CCCCN3c3ncnc4cccc(C)c34)nn2c2c1CCCC2 [Compound P40] | 4.7 | – | 6.7
7 | Cc1ccc(NS(C)(=O)=O)c(C(=O)N2CCCCC2c2cc3nc4c(c(N5CCOCC5)n3n2)COC4)c1 (stereo not drawn) [Compound P25, N-(4-methyl-2-(2-(8-morpholino-5,7-dihydrofuro[3,4-d]pyrazolo[1,5-a]-pyrimidin-2-yl)piperidine-1-carbonyl)phenyl)methanesulfonamide] | 4 | 468 | –
8 | Cc1cccc2ncnc(N3CCCCC3c3cc4nc5c(cn4n3)CCCC5)c12 (stereo not drawn) [Compound P18, 2-(1-(5-methylquinazolin-4-yl)piperidin-2-yl)-5,6,7,8-tetrahydropyrazolo-[5,1-b]quinazoline] | 4.3 | 3890 | –
9 | Cc1cccc2ncnc(N3CCCC[C@@H]3c3cc4nc5c(c(C)n4n3)CCCC5)c12 [Compound P37] | 4.4 | – | 5.11
10 | Cc1cccc2nc(NS(C)(=O)=O)nc(N3CCCCC3c3cc4nc5c(c(N6CCOCC6)n4n3)CCC5)c12 (stereo not drawn) [Compound P41, N-(5-methyl-4-(2-(8-morpholino-6,7-dihydro-5H-cyclopenta[d]pyrazolo-[1,5-a]pyrimidin-2-yl)piperidin-1-yl)quinazolin-2-yl)methanesulfonamide] | 4 | 229 | –
11 | Cc1ccc(NS(C)(=O)=O)c(C(=O)N2CCCCC2c2cc3nc4c(c(O)n3n2)CCCC4)c1 (stereo not drawn) [Compound P14, N-(2-(2-(9-hydroxy-5,6,7,8-tetrahydropyrazolo[5,1-b]quinazolin-2-yl)-piperidine-1-carbonyl)-4-methylphenyl)methanesulfonamide] | 4.3 | 40.7 | –
12 | Cc1ccc(NS(C)(=O)=O)c(C(=O)N2CCCCC2c2cc3nc4c(c(N)n3n2)CCCC4)c1 (stereo not drawn) [Compound P19, N-(2-(2-(9-amino-5,6,7,8-tetrahydropyrazolo[5,1-b]quinazolin-2-yl)-piperidine-1-carbonyl)-4-methylphenyl)methanesulfonamide] | 4.3 | 19.5 | –
13 | COc1cccc2ncnc(N3CCCCC3c3cc4nc5c(c(N6CCOCC6)n4n3)CCCC5)c12 (stereo not drawn) [Compound P12, 4-(2-(1-(5-methoxyquinazolin-4-yl)piperidin-2-yl)-5,6,7,8-tetrahydropyrazolo[5,1-b]quinazolin-9-yl)morpholine] | 4.4 | 75.9 | –
14 | Cc1cccc2ncnc(N3CCCCC3c3cc4nc5c(c(N6CCCC6)n4n3)CCC5)c12 (stereo not drawn) [Compound P22, 2-(1-(5-methylquinazolin-4-yl)piperidin-2-yl)-8-(pyrrolidin-1-yl)-6,7-dihydro-5H-cyclopenta[d]pyrazolo[1,5-a]pyrimidine] | 4.6 | 282 | –
15 | Cc1ccc(NS(C)(=O)=O)c(C(=O)N2CCCC[C@@H]2c2cc3nc4c(c(N5CCOCC5)n3n2)CCCC4)c1 [Compound P2, (R)—N-(4-methyl-2-(2-(9-morpholino-5,6,7,8-tetrahydropyrazolo[5,1-b]quinazolin-2-yl)-piperidine-1-carbonyl)phenyl)methanesulfonamide] | 4.3 | 13.2 | –
16 | Cc1cccc2ncnc(N3CCCC[C@H]3c3cc4nc5c(c(C)n4n3)CCCC5)c12 [Compound P38] | 4.6 | – | 6.79
17 | Cc1cccc2nc(NS(C)(=O)=O)nc(N3CCCCC3c3cc4nc5c(c(N6CCOCC6)n4n3)CCCC5)c12 (stereo not drawn) [Compound P7, N-(5-methyl-4-(2-(9-morpholino-5,6,7,8-tetrahydropyrazolo[5,1-b]-quinazolin-2-yl)piperidin-1-yl)quinazolin-2-yl)methanesulfonamide] | 4.2 | 6.03 | –
18 | Cc1cccc2ncnc(N3CCCCC3c3cc4nc5c(c(N6CCOCC6)n4n3)CCC5)c12 (stereo not drawn) [Compound P21, 4-(2-(1-(5-methylquinazolin-4-yl)piperidin-2-yl)-6,7-dihydro-5H-cyclopenta[d]pyrazolo[1,5-a]pyrimidin-8-yl)morpholine] | 4.6 | 708 | –
19 | Cc1cccc2ncnc(N3CCCCC3c3cc4nc5c(c(N6CCOCC6)n4n3)CCCCC5)c12 (stereo not drawn) [Compound P24, 4-(2-(1-(5-methylquinazolin-4-yl)piperidin-2-yl)-6,7,8,9-tetrahydro-5H-cyclohepta[d]pyrazolo[1,5-a]pyrimidin-10-yl)morpholine] | 4.8 | 9550 | –
20 | Cc1ccc(NS(C)(=O)=O)c(C(=O)N2CCCCC2c2cc3nc4c(c(N5CCOCC5)n3n2)CCOC4)c1 (stereo not drawn) [Compound P28, N-(4-methyl-2-(2-(9-morpholino-7,8-dihydro-5H-pyrano[3,4-d]pyrazolo-[1,5-a]pyrimidin-2-yl)piperidine-1-carbonyl)phenyl)methane-sulfonamide] | 4.6 | 355 | –
21 | Cc1cccc2nc(NS(C)(=O)=O)nc(N3CCCCC3c3cc4nc5c(c(N6CCOCC6)n4n3)COCC5)c12 (stereo not drawn) [Compound P32, N-(5-methyl-4-(2-(9-morpholino-6,8-dihydro-5H-pyrano[4,3-d]pyrazolo-[1,5-a]pyrimidin-2-yl)piperidin-1-yl)quinazolin-2-yl)methanesulfonamide] | 4 | 55 | –
22 | Cc1nc2cc([C@H]3CCCCN3c3ncnc4cccc(C)c34)nn2c2c1CCCC2 [Compound P39] | 4.9 | – | 5.55
23 | Cc1ccc(NS(C)(=O)=O)c(C(=O)N2CCCCC2c2cc3nc4c(c(N(C)C)n3n2)CCCN4C)c1 (stereo not drawn) [Compound P26, N-(2-(2-(9-(dimethylamino)-5-methyl-5,6,7,8-tetrahydropyrazolo-[1,5-a]pyrido[2,3-d]pyrimidin-2-yl)piperidine-1-carbonyl)-4-methylphenyl)-methane-sulfonamide] | 4.4 | 1.58 | –
24 | Cc1cccc2ncnc(N3CCCCC3c3cc4nc5c(c(N(C)C)n4n3)CCN5C)c12 (stereo not drawn) [Compound P42, N,N,5-trimethyl-2-(1-(5-methylquinazolin-4-yl)piperidin-2-yl)-6,7-dihydro-5H-pyrazolo[1,5-a]pyrrolo[2,3-d]pyrimidin-8-amine] | 4.6 | 16.6 | –
25 | Cc1cccc2ncnc(N3CCCCC3c3cc4nc5c(c(N6CCOCC6)n4n3)CCCC5)c12 (stereo not drawn) [Compound P5, 4-(2-(1-(5-methylquinazolin-4-yl)piperidin-2-yl)-5,6,7,8-tetrahydropyrazolo[5,1-b]quinazolin-9-yl)morpholine] | 4.6 | 275 | –
26 | Cc1ccc2nc(Cl)nc(N3CCCCC3c3cc4nc5c(c(N6CCOCC6)n4n3)CCCC5)c2c1 (stereo not drawn) [Compound P8, 4-(2-(1-(2-chloro-6-methylquinazolin-4-yl)piperidin-2-yl)-5,6,7,8-tetrahydropyrazolo[5,1-b]quinazolin-9-yl)morpholine] | 4.5 | 162 | –
27 | Cc1ccc(NS(C)(=O)=O)c(C(=O)N2CCCCC2c2cc3nc(N(C)C)c4c(n3n2)N(C)CCC4)c1 (stereo not drawn) [Compound P27, N-(2-(2-(5-(dimethylamino)-9-methyl-6,7,8,9-tetrahydropyrazolo-[1,5-a]pyrido[3,2-e]pyrimidin-2-yl)piperidine-1-carbonyl)-4-methylphenyl)methane-sulfonamide] | 4.3 | 2.04 | –
28 | Cc1ccc2ncnc(N3CCCCC3c3cc4nc5c(c(N6CCOCC6)n4n3)CCCC5)c2c1 (stereo not drawn) [Compound P4, 4-(2-(1-(6-methylquinazolin-4-yl)piperidin-2-yl)-5,6,7,8-tetrahydropyrazolo[5,1-b]quinazolin-9-yl)morpholine] | 4.7 | 166 | –
29 | Cc1ccc(NS(C)(=O)=O)c(C(=O)N2CCCC[C@H]2c2cc3nc4c(c(N5CCOCC5)n3n2)CCCC4)c1 [Compound P3, (S)—N-(4-methyl-2-(2-(9-morpholino-5,6,7,8-tetrahydropyrazolo[5,1-b]quinazolin-2-yl)piperidine-1-carbonyl)-phenyl)methanesulfonamide] | 4.5 | 0.562 | –
30 | Cc1cccc2nc(Cl)nc(N3CCCCC3c3cc4nc5c(c(N6CCOCC6)n4n3)CCCC5)c12 (stereo not drawn) [Compound P6, 4-(2-(1-(2-chloro-5-methylquinazolin-4-yl)piperidin-2-yl)-5,6,7,8-tetrahydropyrazolo[5,1-b]quinazolin-9-yl)morpholine] | 4.8 | 1200 | –
